Data from PubChem BioAssay (NCI).
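Values below derive from 48-hour exposures of cells grown in 96-well plates, with endpoints linearly interpolated between the two concentrations bracketing the appropriate inhibition level. Definition used: TGI = concentration required for complete inhibition of growth.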

How the values were obtained:
Experiment in all cases: NCI tumour cell line growth inhibition, 48 h
HOP-62 NSCLC = system: HOP-62 NSCLC
HL-60(TB) leukemia = system: HL-60(TB) leukemia
SK-MEL-5 melanoma = system: SK-MEL-5 melanoma
CCRF-CEM leukemia = system: CCRF-CEM leukemia
SF-268 CNS = system: SF-268 CNS
XF 498 CNS = system: XF 498 CNS
DMS 114 small cell lung = system: DMS 114 small cell lung
SW-620 colon = system: SW-620 colon
RPMI-8226 leukemia = system: RPMI-8226 leukemia
HCT-116 colon = system: HCT-116 colon
EKVX NSCLC = system: EKVX NSCLC
M19-MEL melanoma = system: M19-MEL melanoma
SK-MEL-2 melanoma = system: SK-MEL-2 melanoma
ACHN renal = system: ACHN renal
MOLT-4 leukemia = system: MOLT-4 leukemia
U251 CNS = system: U251 CNS
SR leukemia = system: SR leukemia
SNB-19 CNS = system: SNB-19 CNS
UACC-62 melanoma = system: UACC-62 melanoma
M14 melanoma = system: M14 melanoma
786-0 renal = system: 786-0 renal
NCI-H522 lung = system: NCI-H522 lung
SF-539 CNS = system: SF-539 CNS
SNB-78 CNS = system: SNB-78 CNS
UO-31 renal = system: UO-31 renal
KM20L2 colon = system: KM20L2 colon
COLO 205 colon = system: COLO 205 colon
OVCAR-5 ovarian = system: OVCAR-5 ovarian
HOP-92 NSCLC = system: HOP-92 NSCLC
UACC-257 melanoma = system: UACC-257 melanoma
OVCAR-8 ovarian = system: OVCAR-8 ovarian
HCC-2998 colon = system: HCC-2998 colon
DLD-1 colon = system: DLD-1 colon
RXF 393 renal = system: RXF 393 renal
DMS 273 small cell lung = system: DMS 273 small cell lung
NCI-H23 lung = system: NCI-H23 lung
TK-10 renal = system: TK-10 renal
NCI-H226 lung = system: NCI-H226 lung
SF-295 CNS = system: SF-295 CNS
SNB-75 CNS = system: SNB-75 CNS
K-562 leukemia = system: K-562 leukemia
MALME-3M melanoma = system: MALME-3M melanoma
HOP-18 NSCLC = system: HOP-18 NSCLC
SK-MEL-28 melanoma = system: SK-MEL-28 melanoma
KM12 colon = system: KM12 colon
HCT-15 colon = system: HCT-15 colon
OVCAR-3 ovarian = system: OVCAR-3 ovarian
NCI-H460 lung = system: NCI-H460 lung
HT29 colon = system: HT29 colon
RXF-631 renal = system: RXF-631 renal
LOX IMVI melanoma = system: LOX IMVI melanoma
SK-OV-3 ovarian = system: SK-OV-3 ovarian
SN12C renal = system: SN12C renal
LXFL 529 NSCLC = system: LXFL 529 NSCLC
IGROV1 ovarian = system: IGROV1 ovarian
OVCAR-4 ovarian = system: OVCAR-4 ovarian
CAKI-1 renal = system: CAKI-1 renal
A498 renal = system: A498 renal
A549 NSCLC = system: A549 NSCLC

Measured: TGI

COc1cc2c(cc1OC)C1c3ccccc3C(C#N)(C2)N(C(=O)c2ccccc2)C1O (stereo unspecified)
56.4 µM: NCI-H522 lung
90 µM: SK-MEL-5 melanoma
95.9 µM: XF 498 CNS
53.1 µM: COLO 205 colon
not listed: OVCAR-4 ovarian | CAKI-1 renal | A498 renal | A549 NSCLC
> 100 µM: all other assays above

COc1ccc(-c2cc(C(=O)Nc3cccc(C(F)(F)F)c3)[nH]c(=S)n2)cc1
not listed: RXF-631 renal
> 100 µM: all other assays above

Nc1nc2ncn(CCO)c2c(=O)[nH]1
not listed: SK-MEL-5 melanoma | DMS 114 small cell lung | M14 melanoma | NCI-H522 lung | K-562 leukemia | KM12 colon | RXF-631 renal | IGROV1 ovarian | OVCAR-4 ovarian | CAKI-1 renal | A498 renal
> 100 µM: all other assays above
